Source: patent US9856218B2, “Inhibitors of PRMT5 and methods of their use” (Ohio State Innovation Foundation, priority 2013, dated 2018)
pEC50, pIC50: −log10 of the molar value. Read-outs that look alike come from different tables or passages of the source.

Tests used:
JeKo cells = test: Immunofluorescence staining of methylated H4(Me2)R3 / H3(Me2)R8; format: cell-based; conditions: FIG. 2F
Experimental: DAPI was used to stain nuclei.
Immunofluorescence assays for screening for presence of type II PRMT epigenetic marks (H4(SMe2)R3) compared to type I mark (H4(AMe2)R3). Cell lines were incubated for 24 hours with all the 14 compounds. After 24 hours, cells were fixed, blocked and treated with mAbs specific for symmetric dimethylation and asymmetric dimethylation of histone H4R3 respectively. Alexa Fluor 488 conjugated 2nd Ab was used for the staining of histone marks (green). Draq5 was used to stain nuclei (blue).

multiple cell lines = test: Proliferation of multiple cell lines (FIG. 59); format: cell-based; conditions: FIG. 59A-E
Experimental: Proliferation of multiple cell lines was evaluated for CMPD 5, CMPD 7, HLCL61, HLCL-65, and HLCL-66 (FIG. 59A-E).

[1] = system: PRMT5 expression and phosphorylation levels in AML cells; test: PRMT5 expression and phosphorylation after FLT3 inhibition; format: cell-based; conditions: FIG. 38C
Experimental: Whole cell lysates were prepared by suspending cell pellets in RIPA buffer for 20 min (1% NP-40, 0.1% SDS, 150 mM NaCl, 50 mM Tris, pH 8.0), then supplemented with 1× complete EDTA free protease inhibitor (Roche) and 1× PhosStop (Roche). Lysates were separated by 4-20% SDS-PAGE and transferred to PVDF membrane (GE Healthcare, Piscataway, N.J.). Membranes were blocked with 5% milk or BSA in 1×TBS with 0.1% Tween 20 for 1 hour at room temperature with shaking. Primary antibodies for ACTIN, GAPDH and FLT3 (Santa Cruz Biotechnology, Santa Cruz Calif.), P65 (Cell signaling), PRMT5 and SP1 (Millipore), H4R3, H3R8, H3 and H4 (Abcam), were diluted 1:1000 or 1:2000 in 5% milk or BSA and incubated for 1-2 hr at room temperature. Membranes were washed using 1×TBS-T, incubated with HRP-conjugated secondary antibodies diluted in 1×TBS-T with 5% milk or BSA, washed, and developed using SuperSignal West Dura Chemiluminescent Substrate (Thermo Scientific).

[2] = biological target: T1, recombinant human PRMT5/MEP50 enzyme (Homo sapiens, UniProt O14744); test: Epigenase PRMT methyltransferase (type II-specific) activity/inhibition assay kit; format: biochemical; conditions: 25 ng recombinant human PRMT5/MEP50 per reaction; read-out: Inhibition of PRMT5 mediated H4R3 methylation (IC50)
T1 construct: purchased BPS Bioscience
T1 sequence (O14744 2-637 limits assumed): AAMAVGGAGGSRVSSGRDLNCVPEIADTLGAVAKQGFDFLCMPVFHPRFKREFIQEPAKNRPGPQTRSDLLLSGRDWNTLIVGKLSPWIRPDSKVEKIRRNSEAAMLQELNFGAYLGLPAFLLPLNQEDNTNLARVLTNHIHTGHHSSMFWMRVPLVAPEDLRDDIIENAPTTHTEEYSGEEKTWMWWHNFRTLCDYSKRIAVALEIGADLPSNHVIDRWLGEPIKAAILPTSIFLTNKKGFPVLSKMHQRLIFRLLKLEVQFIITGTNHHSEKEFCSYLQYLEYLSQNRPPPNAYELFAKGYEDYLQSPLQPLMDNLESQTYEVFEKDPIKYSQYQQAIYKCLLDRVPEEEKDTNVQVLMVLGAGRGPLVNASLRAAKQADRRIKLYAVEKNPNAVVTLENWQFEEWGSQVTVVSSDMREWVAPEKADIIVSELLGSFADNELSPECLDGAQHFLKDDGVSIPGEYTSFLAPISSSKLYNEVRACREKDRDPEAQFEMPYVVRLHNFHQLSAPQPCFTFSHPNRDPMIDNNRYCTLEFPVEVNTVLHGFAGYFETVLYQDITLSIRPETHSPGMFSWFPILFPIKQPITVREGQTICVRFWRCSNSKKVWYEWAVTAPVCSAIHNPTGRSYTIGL
T1 sequence (Q9BQA1 2-342 partner limits assumed): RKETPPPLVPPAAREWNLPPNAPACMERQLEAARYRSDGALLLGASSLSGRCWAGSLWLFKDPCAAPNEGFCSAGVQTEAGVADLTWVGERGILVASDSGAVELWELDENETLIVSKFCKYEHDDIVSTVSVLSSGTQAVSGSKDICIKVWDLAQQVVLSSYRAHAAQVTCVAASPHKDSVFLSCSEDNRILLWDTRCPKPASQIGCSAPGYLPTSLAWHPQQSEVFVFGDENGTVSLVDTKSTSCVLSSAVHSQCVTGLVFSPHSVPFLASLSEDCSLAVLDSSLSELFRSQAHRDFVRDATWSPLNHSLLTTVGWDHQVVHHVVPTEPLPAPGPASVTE
Experimental: The inhibition of PRMT5 mediated H4R3 methylation result was obtained with Epigenase™ PRMT methyltransferase (type II-specific) activity/inhibition assay kit. 25 ng recombinant human PRMT5/MEP50 enzyme (purchased from BPS Bioscience) was used in each reaction.

[3] = system: Mantle cell lymphoma cell line Jeko; test: MTS anti-proliferation assay; format: cell-based
Experimental: MTS proliferation assays were performed according the CellTiter 96™ Aqueous Cell Proliferation Assay Technical Bulletin (Promega, Madison, Wis.). 5×10^5 cells were plated in each well of a 96-well plate at 37° C. and assayed for proliferation at 24, 48, and 72 hr. Proliferation signal at 50% of control was used as IC50 for growth.
(§1) Following the synthesis of 14 compounds, the anti-proliferation and pro-apoptotic activities of those compounds was evaluated in Mantle cell lymphoma cell line Jeko. Replicate cultures of Jeko were incubated in DMSO and the compounds for 24, 48 and 72 hours. FITC-Annexin V-PI stained flow cytometry was used to detect the apoptotic population of cells (Table 4).

[4] = system: Mantle cell lymphoma cell line Jeko; test: Induction of apoptosis, FITC-Annexin V-PI flow cytometry; format: cell-based
Experimental: Analysis by flow cytometry. Cell viability was also measured by flow cytometry at 24 and 48 hr using annexin-V-FITC and propidium iodide (PI) according to the manufacturer's instructions (BD Biosciences).
as §1

recombinant PRMT1 = biological target: T2, recombinant PRMT1 (Rattus norvegicus, UniProt Q63009); test: Histone methyltransferase assay, [3H]SAM; format: biochemical
T2 construct: purchased Millipore 14-474
T2 sequence (Q63009 whole entry): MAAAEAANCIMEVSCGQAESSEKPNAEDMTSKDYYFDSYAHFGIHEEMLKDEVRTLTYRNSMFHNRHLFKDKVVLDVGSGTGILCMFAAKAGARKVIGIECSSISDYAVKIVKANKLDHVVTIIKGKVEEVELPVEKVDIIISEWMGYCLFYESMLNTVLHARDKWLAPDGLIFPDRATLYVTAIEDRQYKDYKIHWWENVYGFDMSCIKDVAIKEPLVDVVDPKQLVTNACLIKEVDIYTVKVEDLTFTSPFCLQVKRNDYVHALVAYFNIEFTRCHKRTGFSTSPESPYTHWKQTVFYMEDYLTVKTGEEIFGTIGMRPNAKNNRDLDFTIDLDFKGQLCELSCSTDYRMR
Experimental: (§2) Histone methylation was performed in the presence of DMSO, and 1-40 μM inhibitor compounds. […] After 1.5 h incubation at 30° C., reaction mixtures were spotted on Whatman P-81 filter paper, washed five times with 10 mL of […] sodium carbonate buffer (pH 9.0) to remove unincorporated [3H]SAM, and methylated peptides were detected by scintillation counting.
as §2, with “HLCL-32, HLCL-10, HLCL-61 and HLCL-64.” for “inhibitor compounds.”, “After a” for “After”, “C.” for “C.,”, “[^3H]SAM,” for “[3H]SAM,”

[5] = biological target: T3, affinity-purified hSWI/SNF associated PRMT5 (Homo sapiens, UniProt O14744); test: Histone methyltransferase assay, [3H]SAM; format: biochemical; conditions: for inhibition of PRMT5 enzyme: 10 μM, FIG. 17B; for pIC50: FIG. 16, 1-40 μM compound, HeLa S3 core histones, read-out: PRMT5 methylation activity IC50
T3 construct: made in house
T3 sequence (O14744 whole entry): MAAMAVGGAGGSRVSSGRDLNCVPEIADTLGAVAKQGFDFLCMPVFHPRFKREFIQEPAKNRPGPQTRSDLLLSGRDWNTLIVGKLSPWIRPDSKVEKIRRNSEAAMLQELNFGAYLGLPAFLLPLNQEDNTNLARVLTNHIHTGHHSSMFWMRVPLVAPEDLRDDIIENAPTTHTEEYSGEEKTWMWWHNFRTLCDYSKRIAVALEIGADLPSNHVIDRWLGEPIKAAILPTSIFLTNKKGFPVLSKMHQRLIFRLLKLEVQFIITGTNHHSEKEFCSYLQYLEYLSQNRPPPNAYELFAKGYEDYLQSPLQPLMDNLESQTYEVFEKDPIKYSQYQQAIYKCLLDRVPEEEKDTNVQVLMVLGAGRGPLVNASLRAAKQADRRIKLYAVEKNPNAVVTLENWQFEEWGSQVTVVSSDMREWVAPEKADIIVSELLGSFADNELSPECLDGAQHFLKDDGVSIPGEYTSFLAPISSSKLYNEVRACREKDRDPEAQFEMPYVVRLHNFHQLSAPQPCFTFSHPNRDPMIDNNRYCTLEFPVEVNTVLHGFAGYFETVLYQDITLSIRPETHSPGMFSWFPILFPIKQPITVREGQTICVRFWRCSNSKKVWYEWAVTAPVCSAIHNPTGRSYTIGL
T3 sequence (Q9BQA1 whole entry partner): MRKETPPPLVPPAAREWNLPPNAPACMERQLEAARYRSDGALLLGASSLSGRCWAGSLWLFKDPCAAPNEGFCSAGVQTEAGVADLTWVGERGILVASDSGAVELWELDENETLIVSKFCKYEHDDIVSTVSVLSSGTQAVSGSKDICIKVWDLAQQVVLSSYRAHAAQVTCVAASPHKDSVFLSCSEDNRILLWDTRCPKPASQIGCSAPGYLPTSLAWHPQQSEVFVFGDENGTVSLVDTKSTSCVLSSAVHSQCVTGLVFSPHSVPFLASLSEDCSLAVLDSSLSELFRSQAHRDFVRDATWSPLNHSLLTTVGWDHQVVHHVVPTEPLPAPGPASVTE
Experimental: as §2
Type II PRMT enzymes repress gene transcription and symmetrically dimethylate H3R8 and H4R3, while type I PRMT enzymes activate gene transcription and asymmetrically dimethylate H4R3. Purified PRMT5, PRMT1, PRMT4 and PRMT7 were obtained to perform the assay.
as §2, with “HLCL-32, HLCL-10, HLCL-61 and HLCL-64.” for “inhibitor compounds.”, “After a” for “After”, “C.” for “C.,”, “[^3H]SAM,” for “[3H]SAM,”

[6] = MTD study, four mice each dose; format: in vivo
Experimental: (§3) Controlled shRNA depletion was evaluated in a murine lymphoma model (Eμ-BRD2 (Chung, J., et al. (2013) J. Biological Chemistry 288, 35534-35547)) and human xenograft model of glioblastoma (Yan, F., et al (2014) Cancer Research In Press). Referring to FIG. 62A, controlled expression of a PRMT5 shRNA (solid line) but not control shRNA (dashed line) leads to 100% survival of mice engrafted primary DLBCL tumor cells. […] The maximum tolerated dose (MTD, single dose) was identified at 50 mg/kg (see Table 11 below). A sub-toxic dose (25 mg/kg) was used to treat FcMCL mice. Control mice developed peripheral blood and lymph node tumor burden starting day 20 post-engraftment.

[7] = 24 hr Quick MTD test, one mouse for each dose; format: in vivo; conditions: one mouse
Experimental: as §3

FcMCL mice = test: FcMCL mantle cell lymphoma mouse model; format: in vivo; conditions: 25 mg/kg, IP, every other day
Experimental: as §3

[8] = In vivo pharmacokinetics, plasma concentration; design: species or system Mouse; conditions: for concentration at 0.08 h / concentration at 0.17 h / concentration at 0.33 h / concentration at 0.5 h / concentration at 1 h / concentration at 2 h / concentration at 4 h / concentration at 6 h / concentration at 8 h / concentration at 24 h: mouse, in vivo, read-out: Mouse plasma concentration; for concentration at 0.5 h: 0.50 h
Excerpt: Pharmacokinetic data of compounds HLCL-7, HLCL-61, and HLCL-66 taken from an in vivo study is illustrated in Table 10. […]

[9] = incubation time not given (24, 48, 72 h tested)
[10] = IV 5 mg/kg, Tween80 formulation

CCn1c2ccccc2c2cc(CNCc3ccccn3)ccc21 [CMP5, reference compound]
PRMT5 driven epigenetic marks (symmetrically methylated H4(Me2)R3, H3(Me2)R8) (JeKo cells): interferes with PRMT5 driven epigenetic marks | potency, proliferation of multiple cell lines (multiple cell lines): low micromolar range

COc1ccc(C(=O)Nc2sc3c(c2C(N)=O)CCCC3)cc1OC [FLT3 inhibitor (CALBIOCHEM #343020)]
PRMT5 expression and phosphorylation levels [1]: did not change

CS(=O)(=O)c1ccc(Cn2c3ccccc3c3ccccc32)cc1 [HLCL-1]
pIC50 [2]: < 4.30 | pIC50 [3, 9]: < 4.30

CCn1c2ccccc2c2cc(NC(=S)Nc3ccc(S(C)(=O)=O)cc3)ccc21 [HLCL-6]
pIC50 [2]: < 4.30 | pIC50 [3, 9]: < 4.30

CCn1c2ccccc2c2cc(CNc3ccc(S(C)(=O)=O)cc3)ccc21 [HLCL-9]
pIC50 [2]: < 4.30 | pIC50 [3, 9]: < 4.30

CCn1c2ccccc2c2cc(CNCc3ccc(S(C)(=O)=O)cc3)ccc21 [HLCL-10]
pIC50 [2]: < 4.30 | pEC50 ([4]; 24 h): 4.40 | pEC50 ([4]; 48 h): 4.46 | pIC50 ([3]; 24 h incubation): 4.08 | pIC50 ([3]; 48 h incubation): 4.33 | pIC50 ([3]; 72 h incubation): 4.22 | inhibition of PRMT1 enzyme (recombinant PRMT1; 10 μM, FIG. 17B): this non-specific activity is lost | inhibition of PRMT1 enzyme (recombinant PRMT1; 20 μM and above, FIG. 17A): non-specific inhibition | inhibition of PRMT5 enzyme [5]: the only enzyme that is affected is PRMT5 | pIC50 [5]: ~5.30

CCn1c2ccccc2c2cc(/C=N/Nc3ccc(S(C)(=O)=O)cc3)ccc21 [HLCL-12]
pIC50 [2]: < 4.30 | pIC50 [3, 9]: < 4.30

CS(=O)(=O)c1ccc(C(O)C(O)Cn2c3ccccc3c3ccccc32)cc1 (centres unmarked) [HLCL-17&20]
pIC50 [2]: < 4.30 | pIC50 [3, 9]: < 4.30

CS(=O)(=O)c1ccc(NCCn2c3ccccc3c3ccccc32)cc1 [HLCL-23]
pIC50 [2]: < 4.30 | pIC50 [3, 9]: < 4.30

CCn1c2ccccc2c2cc(CNc3ccc(S(N)(=O)=O)cc3)ccc21 [HLCL-32]
pIC50 [2]: < 4.30 | pEC50 ([4]; 24 h): 4.52 | pEC50 ([4]; 48 h): 4.70 | pIC50 ([3]; 24 h incubation): 4.29 | pIC50 ([3]; 48 h incubation): 4.54 | pIC50 ([3]; 72 h incubation): 4.54 | inhibition of PRMT1 enzyme (recombinant PRMT1; 10 μM, FIG. 17B): this non-specific activity is lost | inhibition of PRMT1 enzyme (recombinant PRMT1; 20 μM and above, FIG. 17A): non-specific inhibition | inhibition of PRMT5 enzyme [5]: the only enzyme that is affected is PRMT5 | pIC50 [5]: ~5.30

CS(=O)(=O)c1ccc(/C=C/Cn2c3ccccc3c3ccccc32)cc1 [HLCL-63]
pIC50 [2]: < 4.30 | pIC50 [3, 9]: < 4.30

CS(=O)(=O)c1ccc(/C=C\Cn2c3ccccc3c3ccccc32)cc1 [HLCL-64]
pIC50 [2]: < 4.30 | pIC50 [3, 9]: < 4.30 | inhibition of PRMT1 enzyme (recombinant PRMT1; 10 μM, FIG. 17B): this non-specific activity is lost | inhibition of PRMT1 enzyme (recombinant PRMT1; 20 μM and above, FIG. 17A): non-specific inhibition | inhibition of PRMT5 enzyme [5]: the only enzyme that is affected is PRMT5 | pIC50 [5]: ~5.30

CCn1c2ccc(Br)cc2c2cc(CNCc3ccccc3OC)ccc21 [HLCL-65]
survival 24 hr after dosing ([6]; IP-5 mg/kg, four mice): Alive 24 hr after | condition within 1 hr after dosing (alive but slow moving) ([6]; IP-50 mg/kg, four mice): Alive within 1 hr after | survival 24 hr after dosing ([6]; IP-50 mg/kg, four mice): moving. Alive 24 hr | MTD at 24 h ([6]; mouse, in vivo, single dose, mice, read-out: maximum tolerated dose (MTD, single dose)): 50 mg/kg | survival after dosing ([7]; IP-50 mg/kg): Alive 24 hr after | clinical signs after dosing ([7]; IP-100 mg/kg, after 24 hr): paralyzed | clinical signs after dosing ([7]; IP-200 mg/kg): Paralyzed after dosing, | survival after dosing ([7]; IP-200 mg/kg): dead within 1 hr | survival after dosing ([7]; IV-2.5 mg/kg): Dead instantly after | survival after dosing ([7]; IV-5 mg/kg): Alive 24 hr after | survival after dosing ([7]; IV-10 mg/kg): Dead instantly after | survival after dosing ([7]; IV-20 mg/kg): Dead instantly after | tumor burden in FcMCL mice (FcMCL mice; lymph node versus peripheral blood): controlling development of lymph node tumor burden but not peripheral blood FcMCL tumor burden | survival of FcMCL mice (FcMCL mice; preliminary experiment): improved survival | pIC50 [2]: 4.52 | peak plasma concentrations ([8]; IV and IP routes at a dose of 25 mg/kg, FIG. 62B): 8 to 20 µM | concentration at 0.08 h ([8]; IP 25 mg/kg, DMSO solution): 6240 nM | concentration at 0.17 h ([8]; IP 25 mg/kg, DMSO solution): 6270 nM | concentration at 0.33 h ([8]; IP 25 mg/kg, DMSO solution): 5280 nM | concentration at 0.5 h ([8]; IP 25 mg/kg, DMSO solution): 1660 nM | concentration at 1 h ([8]; IP 25 mg/kg, DMSO solution): 1590 nM | concentration at 2 h ([8]; IP 25 mg/kg, DMSO solution): 8450 nM | concentration at 4 h ([8]; IP 25 mg/kg, DMSO solution): 4510 nM | concentration at 6 h ([8]; IP 25 mg/kg, DMSO solution): 5480 nM | concentration at 8 h ([8]; IP 25 mg/kg, DMSO solution): 3710 nM | concentration at 24 h ([8]; IP 25 mg/kg, DMSO solution): 480 nM | concentration at 0.08 h [8, 10]: 2940 nM | concentration at 0.17 h [8, 10]: 2050 nM | concentration at 0.33 h [8, 10]: 2940 nM | concentration at 0.5 h [8, 10]: 2390 nM | concentration at 1 h [8, 10]: 1890 nM | concentration at 2 h [8, 10]: 1930 nM | concentration at 4 h [8, 10]: 1530 nM | concentration at 6 h [8, 10]: 720 nM | concentration at 8 h [8, 10]: 513 nM | concentration at 24 h [8, 10]: 29.6 nM | pEC50 ([4]; 24 h): 5.40 | pEC50 ([4]; 48 h): 5.30 | potency, proliferation of multiple cell lines (multiple cell lines): low micromolar range | pIC50 ([3]; 24 h incubation): 5.05 | pIC50 ([3]; 48 h incubation): 5.10 | pIC50 ([3]; 72 h incubation): 5.22

CO[C@@H]1[C@H](N(C)C(=O)c2ccccc2)C[C@H]2O[C@]1(C)n1c3ccccc3c3c4c(c5c6ccccc6n2c5c31)C(=O)NC4 [PKC412]
PRMT5 expression and phosphorylation levels [1]: did not change
